Patent US11034672B1, “Tyrosine kinase inhibitor compositions, methods of making and methods of use” (Black Diamond Therapeutics, Inc., priority 2018, dated 2021)

Tests used:
[1] = system: covalently-activated EGFR variants; assay: Covalent dimer formation, Western blot under non-reducing conditions; assay type: cell-based
EGFR WT [2] = target: T1, EGFR WT (Homo sapiens, UniProt P00533); assay: Activity for inhibiting EGFR (Table A), EGFR WT; assay type: cell-based; conditions: read-out: EGFR WT, potency code (IC50)
EGFR V3 [3] = target: T2, EGFR V3 (Homo sapiens, UniProt P00533, DELINS30-297G); assay: Activity for inhibiting EGFR (Table A), EGFR V3 (EGFR-Viii); assay type: cell-based; conditions: read-out: EGFR V3, potency code (IC50)
T2 construct: expressed in transfected cells; host or cells: BaF3 (murine pro-B), retroviral pMXs-IRES-Blasticidin

HER2 WT [4] = target: T3, HER2 WT (Homo sapiens, UniProt P04626); assay: Activity for inhibiting HER2 (Table B), HER2 WT; assay type: cell-based
HER2 S310F [5] = target: T4, HER2 S310F (Homo sapiens, UniProt P04626, S310F); assay: Activity for inhibiting HER2 (Table B), HER2 S310F; assay type: cell-based; conditions: read-out: HER2 S310F, potency code (IC50)
T4 construct: expressed in transfected cells; host or cells: BaF3 (murine pro-B)
Description: (§1) EC50 values were determined with the same application.

HER2 YVMA [6] = target: T5, HER2 YVMA (Homo sapiens, UniProt P04626, INS775YVMA); assay: Activity for inhibiting HER2 (Table B), HER2 YVMA; assay type: cell-based; conditions: read-out: HER2 YVMA, potency code (IC50)
T5 construct: expressed in transfected cells; host or cells: BaF3 (murine pro-B)
Description: as §1

EGFR WT [7] = target: T1, EGFR WT; assay: BaF3 cell proliferation assay, EGFR WT (Table A); assay type: cell-based; conditions: potency code, 3 days, CellTiterGlo, read-out: EGFR WT (Activity for Inhibiting EGFR)
Procedure, shortened: (§2)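 Mouse BaF3 cells were retrovirally transduced (pMXs-IRES-Blasticidin, VSV-G pseudotyped virus from HEK 293T) with the human EGFR or HER2 variant, selected in 10 μg/ml Blasticidin for one week, then made IL-3 independent. EC50 values come from proliferation of these lines.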

EGFR V3 [8] = target: T2, EGFR V3; assay: BaF3 cell proliferation assay, EGFR V3 (Table A); assay type: cell-based; conditions: potency code, 3 days, CellTiterGlo, read-out: EGFR V3 (Activity for Inhibiting EGFR)
Procedure, shortened: as §2

HER2 WT [9] = target: T3, HER2 WT; assay: BaF3 cell proliferation assay, HER2 WT (Table B); assay type: cell-based; conditions: potency code, 3 days, CellTiterGlo, read-out: HER2 WT (Activity for Inhibiting HER2)
HER2 S310F [10] = target: T4, HER2 S310F; assay: BaF3 cell proliferation assay, HER2 S310F (Table B); assay type: cell-based; conditions: potency code, 3 days, CellTiterGlo, read-out: HER2 S310F (Activity for Inhibiting HER2)
HER2 YVMA [11] = target: T5, HER2 YVMA; assay: BaF3 cell proliferation assay, HER2 YVMA (Table B); assay type: cell-based; conditions: potency code, 3 days, CellTiterGlo, read-out: HER2 YVMA (Activity for Inhibiting HER2)
HER2 S310F [12] = assay: Tumor pHER2/pERK AlphaLisa in mice bearing HER2 S310F BaF3 tumors (Examples 15-18); assay type: in vivo; conditions: two day acute oral dosing, 15 mg/kg; at peak plasma levels
Description: (§3) Following the second dose, tumors were collected at 2 hours, 5 hours, 12 hours and 24 hours, and analyzed for both pHER2 activity and pERK activity via AlphaLisa. Plasma was also collected at these time points and analayzed for the presence of Compound No. 21 to determine pharmacokinetic profile. The tumor tissue was cut and homogenized using the Precellys Soft Tissue Homogenizing kit (KT03961-1-00.3.2) containing T-PER tissue protein extraction reagent (Thermo Scientific #78510), supplemented with Protease Inhibitor (Sigma P8340), and Phosphatase Inhibitors II and III (Sigma P5726 and P0044). Tissue samples were homogenized in the Precellys machine by spinning two times for one minute each. Sample tubes were centrifuged for 5 min at 15,000 rpm at 4° C. The supernatant was transferred to a fresh microtube and spun again for 5 minutes at 15,000 rpm at 4° C. Supernatant was then transferred to a fresh microtube and placed on ice. The protein concentration of the supernatant was measured using the BCA reagent Kit (Thermo Scientific #23225). Tumor tissue-derived lysates were analyzed for either HER2 activity or EGFR activity by detection of pHER2 (Tyr1221/1222) or pERK (Thr202/Tyr204) phosphosites, respectively, via AlphaLisa. Briefly, tumor Lysates were diluted to 0.5 ug/ul in 1× diluted SureFire Ultra Kit Lysis Buffer (5× supplied stock) supplemented with Protease Inhibitor (Sigma P8340) and Phosphatase Inhibitor II and III (Sigma P5726 and P0044). 10 ul of total tumor lysate was added per well in triplicate to a 384-well Opti-plate (Perkin Elmer #6007290). Activation Buffer was diluted 25-fold in combined Reaction Buffer 1 and Reaction Buffer 2, and acceptor beads were diluted 50-fold in the combined Reaction Buffers. 5 ul/well of the Acceptor bead:Reaction buffer mixture was added to each well.
as §3, with “No. 5” for “No. 21”, “Buffer (X” for “Buffer (5×”
To determine the ability of Compound No. 118 to inhibit tumor growth and induce tumor regression in vivo, a mouse tumor model containing the HER2 S310F mutation was used. Athymic nude mice from Charles River Labs bearing HER2 S310F BaF3 tumors were treated with two day acute oral dosing of Compound No. 118 at 15 mg/kg. […]

EGFR NPH [13] = target: T6, EGFR NPH (Homo sapiens, UniProt P00533, DUP771-773); assay: Activity for inhibiting EGFR (Table A), EGFR NPH; assay type: cell-based; conditions: read-out: EGFR NPH, potency code (IC50)
T6 construct: expressed in transfected cells; host or cells: BaF3 (murine pro-B), retroviral pMXs-IRES-Blasticidin

EGFR SVD [14] = target: T7, EGFR SVD (Homo sapiens, UniProt P00533, DUP768-770); assay: Activity for inhibiting EGFR (Table A), EGFR SVD; assay type: cell-based; conditions: read-out: EGFR SVD, potency code (IC50)
T7 construct: expressed in transfected cells; host or cells: BaF3 (murine pro-B), retroviral pMXs-IRES-Blasticidin

EGFR NPH [15] = target: T6, EGFR NPH; assay: BaF3 cell proliferation assay, EGFR NPH (Table A); assay type: cell-based; conditions: potency code, 3 days, CellTiterGlo, read-out: EGFR NPH (Activity for Inhibiting EGFR)
Procedure, shortened: as §2

EGFR SVD [16] = target: T7, EGFR SVD; assay: BaF3 cell proliferation assay, EGFR SVD (Table A); assay type: cell-based; conditions: potency code, 3 days, CellTiterGlo, read-out: EGFR SVD (Activity for Inhibiting EGFR)
Procedure, shortened: as §2

[17] = system: cells expressing ErbB ectodomain variants
GBM = conditions: in combination with radiation and temozolomide; cited from earlier work
[18] = Table B, read-out: HER2 WT, potency code (IC50)
[19] = text lists of compounds, read-out: IC50 value for inhibiting wild-type HER2

T4 sequence (P04626 23-1255 S310F): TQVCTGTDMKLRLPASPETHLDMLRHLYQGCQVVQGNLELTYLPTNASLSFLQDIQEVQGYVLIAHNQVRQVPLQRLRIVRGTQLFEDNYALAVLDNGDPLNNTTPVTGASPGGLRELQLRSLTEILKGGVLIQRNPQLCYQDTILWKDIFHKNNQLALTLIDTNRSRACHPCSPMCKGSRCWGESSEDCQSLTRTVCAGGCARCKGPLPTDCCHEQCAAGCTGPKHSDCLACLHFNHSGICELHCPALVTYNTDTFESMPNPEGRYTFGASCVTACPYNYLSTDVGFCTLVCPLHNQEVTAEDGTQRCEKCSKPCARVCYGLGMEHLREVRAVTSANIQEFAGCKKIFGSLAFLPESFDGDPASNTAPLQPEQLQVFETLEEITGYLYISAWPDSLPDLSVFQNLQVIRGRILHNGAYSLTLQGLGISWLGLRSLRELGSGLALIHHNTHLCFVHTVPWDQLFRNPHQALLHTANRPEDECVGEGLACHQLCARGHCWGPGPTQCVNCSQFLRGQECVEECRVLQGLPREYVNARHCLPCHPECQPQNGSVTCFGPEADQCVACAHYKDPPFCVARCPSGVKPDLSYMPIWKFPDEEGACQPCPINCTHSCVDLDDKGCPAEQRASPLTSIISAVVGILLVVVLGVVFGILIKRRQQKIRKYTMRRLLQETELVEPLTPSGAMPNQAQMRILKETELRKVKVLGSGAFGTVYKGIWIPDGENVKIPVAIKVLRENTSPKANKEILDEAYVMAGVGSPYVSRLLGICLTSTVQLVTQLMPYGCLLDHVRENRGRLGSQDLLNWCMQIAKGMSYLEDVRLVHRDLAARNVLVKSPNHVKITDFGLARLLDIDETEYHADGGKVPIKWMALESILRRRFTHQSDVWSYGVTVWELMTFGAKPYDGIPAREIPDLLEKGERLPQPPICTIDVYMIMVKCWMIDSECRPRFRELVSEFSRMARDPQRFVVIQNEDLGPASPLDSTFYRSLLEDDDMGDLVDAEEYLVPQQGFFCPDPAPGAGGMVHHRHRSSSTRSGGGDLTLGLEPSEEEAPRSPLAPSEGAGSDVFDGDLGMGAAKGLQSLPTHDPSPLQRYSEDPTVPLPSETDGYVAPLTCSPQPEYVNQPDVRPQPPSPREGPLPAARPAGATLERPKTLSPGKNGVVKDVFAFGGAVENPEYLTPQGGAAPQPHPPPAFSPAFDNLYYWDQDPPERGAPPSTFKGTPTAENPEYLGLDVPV
T6 sequence (P00533 with tags, fused parts or gaps DUP771-773): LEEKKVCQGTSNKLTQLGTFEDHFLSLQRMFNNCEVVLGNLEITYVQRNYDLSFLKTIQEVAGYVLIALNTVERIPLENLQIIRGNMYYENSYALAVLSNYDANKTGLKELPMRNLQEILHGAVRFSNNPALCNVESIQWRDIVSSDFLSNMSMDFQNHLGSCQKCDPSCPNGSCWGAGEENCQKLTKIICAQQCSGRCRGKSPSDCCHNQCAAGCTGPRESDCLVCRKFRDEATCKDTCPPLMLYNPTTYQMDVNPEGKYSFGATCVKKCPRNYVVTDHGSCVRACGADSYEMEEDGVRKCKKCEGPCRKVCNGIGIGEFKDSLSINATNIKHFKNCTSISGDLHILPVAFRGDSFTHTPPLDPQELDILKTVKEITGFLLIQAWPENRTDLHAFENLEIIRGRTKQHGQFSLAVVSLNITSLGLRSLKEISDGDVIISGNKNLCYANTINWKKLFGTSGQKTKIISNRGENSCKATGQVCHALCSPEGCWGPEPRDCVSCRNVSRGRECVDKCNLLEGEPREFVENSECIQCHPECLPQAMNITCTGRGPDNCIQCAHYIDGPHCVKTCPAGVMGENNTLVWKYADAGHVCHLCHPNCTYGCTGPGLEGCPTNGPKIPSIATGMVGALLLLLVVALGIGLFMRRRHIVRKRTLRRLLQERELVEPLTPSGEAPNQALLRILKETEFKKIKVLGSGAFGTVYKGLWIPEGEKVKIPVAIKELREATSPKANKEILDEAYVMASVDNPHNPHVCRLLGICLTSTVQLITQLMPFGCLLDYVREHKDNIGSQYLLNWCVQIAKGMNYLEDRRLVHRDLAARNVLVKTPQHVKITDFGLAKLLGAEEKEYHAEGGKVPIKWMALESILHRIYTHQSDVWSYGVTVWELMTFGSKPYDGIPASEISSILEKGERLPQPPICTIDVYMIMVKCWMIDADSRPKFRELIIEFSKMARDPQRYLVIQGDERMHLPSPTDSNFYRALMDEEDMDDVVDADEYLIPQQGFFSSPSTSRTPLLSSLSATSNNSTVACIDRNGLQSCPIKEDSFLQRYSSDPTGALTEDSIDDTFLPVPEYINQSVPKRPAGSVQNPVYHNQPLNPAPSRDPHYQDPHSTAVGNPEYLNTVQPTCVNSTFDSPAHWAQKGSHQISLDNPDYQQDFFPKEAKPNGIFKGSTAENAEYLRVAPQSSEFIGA
T2 sequence (P00533 with tags, fused parts or gaps DELINS30-297G): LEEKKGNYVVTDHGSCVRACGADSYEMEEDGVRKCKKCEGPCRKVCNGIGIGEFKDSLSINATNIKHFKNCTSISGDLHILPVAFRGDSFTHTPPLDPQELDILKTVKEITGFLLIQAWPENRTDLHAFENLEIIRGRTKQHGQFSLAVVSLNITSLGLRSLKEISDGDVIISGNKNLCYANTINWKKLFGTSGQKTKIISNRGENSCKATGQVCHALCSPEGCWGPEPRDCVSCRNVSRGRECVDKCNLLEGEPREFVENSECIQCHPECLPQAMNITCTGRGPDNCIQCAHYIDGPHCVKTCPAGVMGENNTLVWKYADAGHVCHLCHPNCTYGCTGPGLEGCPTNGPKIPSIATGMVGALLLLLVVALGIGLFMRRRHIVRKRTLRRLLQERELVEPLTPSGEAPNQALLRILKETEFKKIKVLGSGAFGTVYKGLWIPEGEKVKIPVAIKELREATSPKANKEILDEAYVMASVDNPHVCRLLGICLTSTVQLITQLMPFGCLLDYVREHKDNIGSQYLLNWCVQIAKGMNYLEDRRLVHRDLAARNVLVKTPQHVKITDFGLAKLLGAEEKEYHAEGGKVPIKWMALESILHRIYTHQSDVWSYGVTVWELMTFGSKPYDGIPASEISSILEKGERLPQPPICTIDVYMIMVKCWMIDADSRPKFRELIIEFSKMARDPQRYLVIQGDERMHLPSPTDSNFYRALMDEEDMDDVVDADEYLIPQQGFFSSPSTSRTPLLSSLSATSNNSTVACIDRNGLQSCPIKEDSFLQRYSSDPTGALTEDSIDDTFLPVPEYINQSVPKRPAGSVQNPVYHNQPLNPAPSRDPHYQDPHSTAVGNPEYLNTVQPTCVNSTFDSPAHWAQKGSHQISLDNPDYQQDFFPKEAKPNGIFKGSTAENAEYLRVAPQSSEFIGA
T5 sequence (P04626 with tags, fused parts or gaps INS775YVMA): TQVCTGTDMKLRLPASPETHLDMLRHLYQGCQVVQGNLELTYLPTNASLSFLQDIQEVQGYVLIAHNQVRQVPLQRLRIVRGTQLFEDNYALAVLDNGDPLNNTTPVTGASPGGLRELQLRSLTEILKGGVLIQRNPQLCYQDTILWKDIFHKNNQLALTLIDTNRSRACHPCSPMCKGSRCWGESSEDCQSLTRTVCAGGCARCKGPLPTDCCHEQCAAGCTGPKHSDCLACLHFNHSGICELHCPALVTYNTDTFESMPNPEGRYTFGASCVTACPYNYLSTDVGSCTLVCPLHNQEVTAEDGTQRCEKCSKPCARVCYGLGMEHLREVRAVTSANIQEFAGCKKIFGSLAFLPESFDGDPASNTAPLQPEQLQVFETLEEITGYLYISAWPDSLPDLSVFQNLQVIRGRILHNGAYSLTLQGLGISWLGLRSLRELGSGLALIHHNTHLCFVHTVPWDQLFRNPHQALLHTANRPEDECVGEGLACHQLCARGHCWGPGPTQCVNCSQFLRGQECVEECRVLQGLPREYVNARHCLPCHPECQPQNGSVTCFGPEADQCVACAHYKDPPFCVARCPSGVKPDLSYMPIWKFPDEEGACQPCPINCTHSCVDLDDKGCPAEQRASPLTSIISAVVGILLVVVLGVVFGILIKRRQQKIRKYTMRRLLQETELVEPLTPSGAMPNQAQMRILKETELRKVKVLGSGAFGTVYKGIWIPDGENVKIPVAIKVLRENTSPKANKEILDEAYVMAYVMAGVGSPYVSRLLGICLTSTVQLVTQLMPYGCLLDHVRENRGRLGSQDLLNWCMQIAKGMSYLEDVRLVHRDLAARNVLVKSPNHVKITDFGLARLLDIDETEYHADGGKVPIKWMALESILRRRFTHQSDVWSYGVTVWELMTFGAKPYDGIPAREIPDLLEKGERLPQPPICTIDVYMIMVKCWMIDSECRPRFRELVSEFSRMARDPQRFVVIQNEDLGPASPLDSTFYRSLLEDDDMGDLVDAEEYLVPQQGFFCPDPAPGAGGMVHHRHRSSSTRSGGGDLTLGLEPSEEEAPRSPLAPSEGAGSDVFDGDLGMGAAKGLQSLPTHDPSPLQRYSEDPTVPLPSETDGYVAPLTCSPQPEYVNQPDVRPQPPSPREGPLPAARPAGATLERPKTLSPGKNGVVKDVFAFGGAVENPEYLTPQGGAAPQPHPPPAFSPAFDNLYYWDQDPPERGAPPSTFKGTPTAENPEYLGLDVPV

Row | SMILES | Induced dimers [1] | IC50 (EGFR WT [2]) [nM] | IC50 (EGFR V3 [3]) [nM] | IC50 (HER2 WT [4]; [18]) [nM] | IC50 (HER2 WT [4]; [19]) [nM] | IC50 (HER2 S310F [5]) [nM] | IC50 (HER2 YVMA [6]) [nM] | IC50 (EGFR WT [7]) [nM] | IC50 (EGFR V3 [8]) [nM] | IC50 (HER2 WT [9]) [nM] | IC50 (HER2 S310F [10]) [nM] | IC50 (HER2 YVMA [11]) [nM] | IC50 (EGFR NPH [13]) [nM] | IC50 (EGFR SVD [14]) [nM] | IC50 (EGFR NPH [15]) [nM] | IC50 (EGFR SVD [16]) [nM] | other results
1 | C=CC(=O)Nc1cccc(Oc2nc(Nc3ccc(N4CCN(C)CC4)cc3)ncc2Cl)c1 [WZ3146] | Yes | – | – | – | – | – | – | – | – | – | – | – | – | – | – | – | –
2 | CCOc1cc2ncc(C#N)c(Nc3ccc(F)c(Cl)c3)c2cc1NC(=O)/C=C/CN(C)C [Pelitinib, pelitinib] | Yes | – | – | – | – | – | – | – | – | – | – | – | – | – | – | – | –
3 | C=CC(=O)Nc1cccc(Sc2nc(Nc3ccc(N4CCN(C)CC4)cc3)ncc2Cl)c1 [WZ8040] | Yes | – | – | – | – | – | – | – | – | – | – | – | – | – | – | – | –
4 | C=CC(=O)Nc1cccc(Oc2nc(Nc3ccc(N4CCN(C)CC4)cc3OC)ncc2Cl)c1 [WZ4002] | Yes | – | – | – | – | – | – | – | – | – | – | – | – | – | – | – | –
5 | C=CC(=O)Nc1cccc(Nc2nc(Nc3ccc(N4CCN(C(C)=O)CC4)cc3OC)ncc2C(F)(F)F)c1 [CO-1686] | Yes | – | – | – | – | – | – | – | – | – | – | – | – | – | – | – | –
6 | C=CC(=O)Nc1cc2c(Nc3ccc(OCc4cccc(F)c4)c(Cl)c3)ncnc2cc1OCCN1CCOCC1 [compound 27] | – | 300 to 500 | 30 to 50 | 10 to 20 | ≤ 20 | 20 to 30 | 30 to 50 | 300 to 500 | 30 to 50 | 10 to 20 | 20 to 30 | 30 to 50 | – | – | – | – | pERK1/2 (Thr202/Tyr204) in tumors (HER2 S310F [12]): reduction; pHER2 (Tyr1221/1222) in tumors (HER2 S310F [12]): reduction
7 | C=CC(=O)Nc1cc2c(Nc3cc(Cl)c(OCc4ccccn4)cc3F)ncnc2cc1OC1CCN(C)C1 (stereo not shown) [compound 60] | – | 200 to 300 | 10 to 20 | 5 to 10 | ≤ 10 | 20 to 30 | 300 to 500 | 200 to 300 | 10 to 20 | 5 to 10 | 20 to 30 | 300 to 500 | 200 to 300 | 200 to 300 | 200 to 300 | 200 to 300 | –
8 | CCOc1cc2ncc(C#N)c(Nc3ccc(OCc4ccccn4)c(Cl)c3)c2cc1NC(=O)/C=C/CN(C)C [Neratinib, neratinib] | – | – | – | – | – | – | – | – | – | – | – | – | – | – | – | – | paradoxical activation [17]: devoid of paradoxical activation
9 | C#Cc1cccc(Nc2ncnc3cc(OCCOC)c(OCCOC)cc23)c1 [Erlotinib, erlotinib] | – | – | – | – | – | – | – | – | – | – | – | – | – | – | – | – | median OS (mOS) (GBM): 8.6 months; median PFS (mPFS) (GBM): 2.8 months
10 | C=CC(=O)Nc1cc2c(Nc3ccc(OCc4ccccn4)c(Cl)c3)ncnc2cc1OCCCN1CC(OC)C1 [compound 118] | – | 200 to 300 | 20 to 30 | – | – | 10 to 20 | 20 to 30 | 200 to 300 | 20 to 30 | – | 10 to 20 | 20 to 30 | – | – | – | – | pERK1/2 (Thr202/Tyr204) in tumors (HER2 S310F [12]): reduction; pHER2 (Tyr1221/1222) in tumors (HER2 S310F [12]): reduction
11 | C=CC(=O)Nc1cc2c(Nc3ccc(OCc4ccccn4)c(Cl)c3)ncnc2cc1OCC1CCCN1 (stereo not shown) [compound 13] | – | 300 to 500 | 50 to 100 | 5 to 10 | ≤ 20 | 30 to 50 | 300 to 500 | 300 to 500 | 50 to 100 | 5 to 10 | 30 to 50 | 300 to 500 | 300 to 500 | 200 to 300 | 300 to 500 | 200 to 300 | –
12 | C=CC(=O)Nc1cc2c(Nc3ccc(OCc4ccccn4)c(Cl)c3)ncnc2cc1OCCN1CCC1 [compound 33] | – | 300 to 500 | 20 to 30 | 5 to 10 | ≤ 10 | 10 to 20 | 100 to 200 | 300 to 500 | 20 to 30 | 5 to 10 | 10 to 20 | 100 to 200 | 50 to 100 | 50 to 100 | 50 to 100 | 50 to 100 | –
13 | C=CC(=O)Nc1cc2c(Nc3ccc(OCc4ccccn4)c(Cl)c3)ncnc2cc1N1CC2CN(C)CC2C1 (stereo not shown) [compound 47] | – | 300 to 500 | 30 to 50 | 10 to 20 | ≤ 20 | 30 to 50 | 500 to 1000 | 300 to 500 | 30 to 50 | 10 to 20 | 30 to 50 | 500 to 1000 | 500 to 1000 | 500 to 1000 | 500 to 1000 | 500 to 1000 | –
14 | C=CC(=O)Nc1cc2c(Nc3ccc(OCc4ccccn4)c(Cl)c3)ncnc2cc1OCCN1CC2CCC(C1)O2 [compound 36] | – | > 1000 | 30 to 50 | 10 to 20 | ≤ 20 | 20 to 30 | 30 to 50 | > 1000 | 30 to 50 | 10 to 20 | 20 to 30 | 30 to 50 | 50 to 100 | 50 to 100 | 50 to 100 | 50 to 100 | –
15 | C=CC(=O)Nc1cc2c(Nc3ccc(OCc4ccccn4)cc3F)ncnc2cc1OCCN1CCOCC1 [compound 56] | – | 300 to 500 | 20 to 30 | 20 to 30 | ≤ 50 | 50 to 100 | 200 to 300 | 300 to 500 | 20 to 30 | 20 to 30 | 50 to 100 | 200 to 300 | 300 to 500 | 300 to 500 | 300 to 500 | 300 to 500 | –
